Test results as given in ChEMBL document CHEMBL1909046, “DrugMatrix in vitro pharmacology data”.

Columns and labels:
[1] = DRUGMATRIX: Calcium Channel Type L, Benzothiazepine radioligand binding (ligand: [3H] Diltiazem); assay type: cell membranes, Rattus norvegicus, Wistar, Brain, Membrane; conditions: Not Active = under 50% inhibition at 10 µM
[2] = target: Mitogen-activated protein kinase 3 (Homo sapiens, UniProt P27361); experiment: DRUGMATRIX: Protein Serine/Threonine Kinase, ERK1 enzyme inhibition (substrate: Myelin Basic Protein); set-up: species or system Escherichia coli; conditions: Not Active = under 50% inhibition at 10 µM
Chain of Mitogen-activated protein kinase 3 (P27361 whole entry): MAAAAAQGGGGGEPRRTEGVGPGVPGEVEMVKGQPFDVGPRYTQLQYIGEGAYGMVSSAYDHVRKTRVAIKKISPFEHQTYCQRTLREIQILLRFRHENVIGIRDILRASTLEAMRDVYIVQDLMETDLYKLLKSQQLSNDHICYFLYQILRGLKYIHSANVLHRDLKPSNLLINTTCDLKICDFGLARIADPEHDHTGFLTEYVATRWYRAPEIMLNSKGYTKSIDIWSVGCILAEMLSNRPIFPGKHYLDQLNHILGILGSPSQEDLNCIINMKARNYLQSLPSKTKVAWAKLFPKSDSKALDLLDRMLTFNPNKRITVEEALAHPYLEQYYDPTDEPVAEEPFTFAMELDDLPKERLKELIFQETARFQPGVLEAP

[3] = target: Vascular endothelial growth factor receptor 1 (Homo sapiens, UniProt P17948); assay type: cell-based; conditions: huvec; also: in other assays of this panel Not Active means under 50% inhibition at 10 µM
Chain of Vascular endothelial growth factor receptor 1 (P17948 whole entry): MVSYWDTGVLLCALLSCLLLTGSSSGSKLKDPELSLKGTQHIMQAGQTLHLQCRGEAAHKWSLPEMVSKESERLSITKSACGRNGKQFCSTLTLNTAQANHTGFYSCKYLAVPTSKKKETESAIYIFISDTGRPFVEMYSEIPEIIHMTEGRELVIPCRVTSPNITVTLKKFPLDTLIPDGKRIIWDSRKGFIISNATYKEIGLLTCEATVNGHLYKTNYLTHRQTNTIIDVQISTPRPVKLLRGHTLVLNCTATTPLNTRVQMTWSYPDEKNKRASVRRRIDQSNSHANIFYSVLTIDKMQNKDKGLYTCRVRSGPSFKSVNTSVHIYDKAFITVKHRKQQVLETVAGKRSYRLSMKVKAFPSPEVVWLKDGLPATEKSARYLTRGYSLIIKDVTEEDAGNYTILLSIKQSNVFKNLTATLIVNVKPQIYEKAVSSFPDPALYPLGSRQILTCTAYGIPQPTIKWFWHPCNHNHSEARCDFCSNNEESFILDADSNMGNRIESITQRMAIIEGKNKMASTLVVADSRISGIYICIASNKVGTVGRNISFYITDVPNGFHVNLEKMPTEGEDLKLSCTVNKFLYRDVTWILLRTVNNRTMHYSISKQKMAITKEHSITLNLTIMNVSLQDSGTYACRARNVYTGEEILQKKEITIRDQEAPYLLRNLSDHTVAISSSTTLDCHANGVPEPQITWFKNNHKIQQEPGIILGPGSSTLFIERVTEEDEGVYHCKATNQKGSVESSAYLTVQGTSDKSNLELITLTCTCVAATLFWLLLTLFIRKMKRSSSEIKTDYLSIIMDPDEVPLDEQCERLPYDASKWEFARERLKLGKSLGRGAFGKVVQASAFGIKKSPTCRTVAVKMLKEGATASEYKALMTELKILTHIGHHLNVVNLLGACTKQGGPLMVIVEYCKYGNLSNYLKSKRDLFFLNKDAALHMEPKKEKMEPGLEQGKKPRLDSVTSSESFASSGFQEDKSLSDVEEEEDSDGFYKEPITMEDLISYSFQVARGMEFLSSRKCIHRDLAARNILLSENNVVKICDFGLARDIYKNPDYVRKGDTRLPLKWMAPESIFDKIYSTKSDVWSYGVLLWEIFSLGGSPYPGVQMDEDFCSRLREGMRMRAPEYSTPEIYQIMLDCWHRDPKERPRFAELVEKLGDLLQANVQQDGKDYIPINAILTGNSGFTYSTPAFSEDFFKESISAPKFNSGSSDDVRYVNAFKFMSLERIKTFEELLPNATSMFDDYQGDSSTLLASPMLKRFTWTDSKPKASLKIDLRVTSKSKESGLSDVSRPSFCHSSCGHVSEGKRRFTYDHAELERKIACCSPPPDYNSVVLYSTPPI

[4] = target: Sodium-dependent noradrenaline transporter (Homo sapiens, UniProt P23975); experiment: DRUGMATRIX: Norepinephrine Transporter radioligand binding (ligand: [125I] RTI-55); assay type: cell membranes, MDCK, Membrane; conditions: Not Active = under 50% inhibition at 10 µM
Chain of Sodium-dependent noradrenaline transporter (P23975 whole entry): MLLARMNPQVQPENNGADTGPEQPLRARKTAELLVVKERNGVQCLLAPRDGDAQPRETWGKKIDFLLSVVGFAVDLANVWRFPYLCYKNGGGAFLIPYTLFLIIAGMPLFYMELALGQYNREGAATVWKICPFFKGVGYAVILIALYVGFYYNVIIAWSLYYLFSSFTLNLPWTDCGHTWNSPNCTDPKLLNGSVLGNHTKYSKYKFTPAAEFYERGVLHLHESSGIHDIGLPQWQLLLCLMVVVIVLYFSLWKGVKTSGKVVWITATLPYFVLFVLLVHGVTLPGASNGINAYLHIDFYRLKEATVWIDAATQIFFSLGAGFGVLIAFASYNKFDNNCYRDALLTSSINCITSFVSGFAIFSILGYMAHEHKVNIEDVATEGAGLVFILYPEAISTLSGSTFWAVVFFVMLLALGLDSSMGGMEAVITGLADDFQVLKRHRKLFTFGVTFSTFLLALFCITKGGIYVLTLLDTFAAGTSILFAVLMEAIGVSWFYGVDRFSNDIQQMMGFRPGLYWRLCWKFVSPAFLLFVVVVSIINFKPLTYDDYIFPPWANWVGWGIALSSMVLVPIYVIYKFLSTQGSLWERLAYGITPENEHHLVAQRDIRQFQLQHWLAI

[5] = target: 5-hydroxytryptamine receptor 2B (Homo sapiens, UniProt P41595); assay type: cell membranes, CHO-K1, Membrane; conditions: for Ki: read-out: Ki; as to all read-outs here: in other assays of this panel Not Active means under 50% inhibition at 10 µM
Chain of 5-hydroxytryptamine receptor 2B (P41595 whole entry): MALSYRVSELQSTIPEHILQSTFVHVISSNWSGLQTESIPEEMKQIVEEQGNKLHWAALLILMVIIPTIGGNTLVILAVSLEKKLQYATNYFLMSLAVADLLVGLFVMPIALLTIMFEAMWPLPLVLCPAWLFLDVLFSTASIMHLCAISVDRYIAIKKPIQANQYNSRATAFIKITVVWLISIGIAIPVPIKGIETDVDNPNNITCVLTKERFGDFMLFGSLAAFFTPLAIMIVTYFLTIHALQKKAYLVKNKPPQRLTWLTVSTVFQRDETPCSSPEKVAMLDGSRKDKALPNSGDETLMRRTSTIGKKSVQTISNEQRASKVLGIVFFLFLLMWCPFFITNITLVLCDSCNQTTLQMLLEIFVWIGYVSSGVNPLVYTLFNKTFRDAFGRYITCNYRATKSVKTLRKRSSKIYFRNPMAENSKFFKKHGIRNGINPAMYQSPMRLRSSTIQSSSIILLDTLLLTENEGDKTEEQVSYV

CN1CCN(C(c2ccccc2)c2ccccc2)CC1 [CYCLIZINE]
2.24 µM: Ki ([1]; read-out: Ki)
0.373 µM: IC50 ([5]; read-out: IC50)
0.238 µM: Ki [5]
2.52 µM: IC50 ([1]; read-out: IC50)
Not Active: IC50 [2] | IC50 [3] | IC50 ([4]; mdck)

CN1C[C@@H]2C[C@H]1CN2c1cc2c(cc1F)c(=O)c(C(=O)O)cn2C1CC1 [DANOFLOXACIN]
Not Active: IC50 [1] | Ki [1] | IC50 [2] | IC50 [3] | IC50 ([4]; mdck) | IC50 ([5]; cho-k1)

COc1cccc2c1C(=O)c1c(O)c3c(c(O)c1C2=O)C[C@@](O)(C(C)=O)C[C@@H]3O[C@H]1C[C@H](N)[C@H](O)[C@H](C)O1 [DAUNORUBICIN]
Not Active: IC50 [1] | Ki [1] | IC50 [2] | IC50 [3] | IC50 ([4]; mdck) | IC50 ([5]; cho-k1)

O=C(O)c1cc(-c2ccc(F)cc2F)ccc1O [DIFLUNISAL]
Not Active: IC50 [1] | Ki [1] | IC50 [2] | IC50 [3] | IC50 ([4]; mdck) | IC50 ([5]; cho-k1)

C[S+](C)[O-] [DIMETHYL SULFOXIDE]
Not Active: IC50 [1] | Ki [1] | IC50 [2] | IC50 [3] | IC50 ([4]; mdck) | IC50 ([5]; cho-k1)

CC1=NN(c2ccccc2)C(=O)C1 [EDARAVONE]
Not Active: IC50 [1] | Ki [1] | IC50 [2] | IC50 [3] | IC50 ([4]; mdck) | IC50 ([5]; cho-k1)

CC(C)C[C@H]1C(=O)N2CCC[C@H]2[C@]2(O)O[C@](NC(=O)[C@@H]3C=C4c5cccc6[nH]cc(c56)C[C@H]4N(C)C3)(C(C)C)C(=O)N12 [ERGOCRYPTINE]
0.013 µM: IC50 ([5]; read-out: IC50)
Not Active: IC50 [1] | Ki [1] | IC50 [2] | IC50 [3] | IC50 ([4]; mdck)
0.00822 µM: Ki [5]

C[C@]12CC[C@@H]3c4ccc(O)cc4CC[C@H]3[C@@H]1C[C@@H](O)[C@@H]2O [ESTRIOL]
Not Active: IC50 [1] | Ki [1] | IC50 [2] | IC50 [3] | IC50 ([4]; mdck) | IC50 ([5]; cho-k1)

C#C[C@]1(O)CC[C@H]2[C@@H]3CCC4=CC(=O)CC[C@]4(C)[C@H]3CC[C@@]21C [ETHISTERONE]
Not Active: IC50 [1] | Ki [1] | IC50 [2] | IC50 [3] | IC50 ([4]; mdck) | IC50 ([5]; cho-k1)

CC(O)(P(=O)(O)O)P(=O)(O)O [ETIDRONIC ACID]
Not Active: IC50 [1] | Ki [1] | IC50 [2] | IC50 [3] | IC50 ([4]; mdck) | IC50 ([5]; cho-k1)

CC(C)(C(=O)O)c1ccc(C(O)CCCN2CCC(C(O)(c3ccccc3)c3ccccc3)CC2)cc1 (centres undefined) [FEXOFENADINE]
Not Active: IC50 [1] | Ki [1] | IC50 [2] | IC50 [3] | IC50 ([4]; mdck) | IC50 ([5]; cho-k1)

CN1CCN(c2c(F)cc3c(=O)c(C(=O)O)cn(CCF)c3c2F)CC1 [FLEROXACIN]
Not Active: IC50 [1] | Ki [1] | IC50 [2] | IC50 [3] | IC50 ([4]; mdck) | IC50 ([5]; cho-k1)

O=c1[nH]c(=O)n([C@H]2C[C@H](O)[C@@H](CO)O2)cc1F [FLOXURIDINE]
Not Active: IC50 [1] | Ki [1] | IC50 [2] | IC50 [3] | IC50 ([4]; mdck) | IC50 ([5]; cho-k1)

COC(=O)Nc1nc2cc(C(=O)c3ccc(F)cc3)ccc2[nH]1 [FLUBENDAZOLE]
Not Active: IC50 [1] | Ki [1] | IC50 [2] | IC50 [3] | IC50 ([4]; mdck) | IC50 ([5]; cho-k1)

CC(=O)OCC(=O)[C@@]1(O)CC[C@H]2[C@@H]3CCC4=CC(=O)CC[C@]4(C)[C@@]3(F)[C@@H](O)C[C@@]21C [FLUDROCORTISONE ACETATE]
Not Active: IC50 [1] | Ki [1] | IC50 [2] | IC50 [3] | IC50 ([4]; mdck) | IC50 ([5]; cho-k1)

CCOC(=O)c1ncn2c1CN(C)C(=O)c1cc(F)ccc1-2 [FLUMAZENIL]
Not Active: IC50 [1] | Ki [1] | IC50 [2] | IC50 [3] | IC50 ([4]; mdck) | IC50 ([5]; cho-k1)

CC(=O)OCC(=O)[C@@]12OC(C)(C)O[C@@H]1C[C@H]1[C@@H]3C[C@H](F)C4=CC(=O)C=C[C@]4(C)[C@@]3(F)[C@@H](O)C[C@@]12C [FLUOCINONIDE]
Not Active: IC50 [1] | Ki [1] | IC50 [2] | IC50 [3] | IC50 ([4]; mdck) | IC50 ([5]; cho-k1)

O=C(O)P(=O)(O)O [FOSCARNET]
Not Active: IC50 [1] | Ki [1] | IC50 [2] | IC50 [3] | IC50 ([4]; mdck) | IC50 ([5]; cho-k1)

Cc1ccc(C)c(OCCCC(C)(C)C(=O)O)c1 [GEMFIBROZIL]
Not Active: IC50 [1] | Ki [1] | IC50 [2] | IC50 [3] | IC50 ([4]; mdck) | IC50 ([5]; cho-k1)

O=c1c(-c2ccc(O)cc2)coc2cc(O)cc(O)c12 [GENISTEIN]
Not Active: IC50 [1] | Ki [1] | IC50 [2] | IC50 [3] | IC50 ([4]; mdck) | IC50 ([5]; cho-k1)

CCC1=C(C)CN(C(=O)NCCc2ccc(S(=O)(=O)NC(=O)N[C@H]3CC[C@H](C)CC3)cc2)C1=O [GLIMEPIRIDE]
Not Active: IC50 [1] | Ki [1] | IC50 [2] | IC50 [3] | IC50 ([4]; mdck) | IC50 ([5]; cho-k1)

Nc1cc(-c2ccncc2)c[nH]c1=O [INAMRINONE]
Not Active: IC50 [1] | Ki [1] | IC50 [2] | IC50 [3] | IC50 ([4]; mdck) | IC50 ([5]; cho-k1)

CCCCC1=NC2(CCCC2)C(=O)N1Cc1ccc(-c2ccccc2-c2nnn[nH]2)cc1 [IRBESARTAN]
Not Active: IC50 [1] | Ki [1] | IC50 [2] | IC50 [3] | IC50 ([4]; mdck) | IC50 ([5]; cho-k1)

CN1CCC(=C2c3ccccc3CC(=O)c3sccc32)CC1 [KETOTIFEN]
Not Active: IC50 [2] | IC50 [3] | IC50 ([4]; mdck)
2.05 µM: Ki ([1]; read-out: Ki)
0.046 µM: IC50 ([5]; read-out: IC50)
0.029 µM: Ki [5]
2.31 µM: IC50 ([1]; read-out: IC50)

N[C@@H](Cn1ccc(=O)c(O)c1)C(=O)O [L-MIMOSINE]
Not Active: IC50 [1] | Ki [1] | IC50 [2] | IC50 [3] | IC50 ([4]; mdck) | IC50 ([5]; cho-k1)

C[N+](C)(C)C[C@H](O)CC(=O)[O-] [LEVOCARNITINE]
Not Active: IC50 [1] | Ki [1] | IC50 [2] | IC50 [3] | IC50 ([4]; mdck) | IC50 ([5]; cho-k1)

CCn1cc(C(=O)O)c(=O)c2cc(F)c(N3CCNC(C)C3)c(F)c21 (centres undefined) [LOMEFLOXACIN]
Not Active: IC50 [1] | Ki [1] | IC50 [2] | IC50 [3] | IC50 ([4]; mdck) | IC50 ([5]; cho-k1)

CN1CCCC(CN2c3ccccc3Sc3ccccc32)C1 (centres undefined) [MEPAZINE]
1.88 µM: IC50 ([4]; read-out: IC50)
1.86 µM: Ki ([4]; read-out: Ki)
0.514 µM: IC50 ([5]; read-out: IC50)
Not Active: IC50 [1] | Ki [1] | IC50 [2] | IC50 [3]
0.327 µM: Ki [5]

Cc1cccc(C)c1NC(=O)C1CCCCN1C (centres undefined) [MEPIVACAINE]
Not Active: IC50 [1] | Ki [1] | IC50 [2] | IC50 [3] | IC50 ([4]; mdck) | IC50 ([5]; cho-k1)

CN(C)C(=N)NC(=N)N [METFORMIN]
Not Active: IC50 [1] | Ki [1] | IC50 [2] | IC50 [3] | IC50 ([4]; mdck) | IC50 ([5]; cho-k1)

CC(C)(C)NCC(O)COc1cccc2c1CC(O)C(O)C2 (centres undefined) [NADOLOL]
Not Active: IC50 [1] | Ki [1] | IC50 [2] | IC50 [3] | IC50 ([4]; mdck) | IC50 ([5]; cho-k1)

C[C@]12CC[C@H]3[C@@H](CCC4=CC(=O)CC[C@@H]43)[C@@H]1CC[C@@H]2O [NANDROLONE]
Not Active: IC50 [1] | Ki [1] | IC50 [2] | IC50 [3] | IC50 ([4]; mdck) | IC50 ([5]; cho-k1)

C[C@@H]1C/C=C/C=C/C=C/C=C/[C@H](O[C@@H]2O[C@H](C)[C@@H](O)[C@H](N)[C@@H]2O)C[C@@H]2O[C@](O)(C[C@@H](O)C[C@H]3O[C@@H]3/C=C/C(=O)O1)C[C@H](O)[C@H]2C(=O)O [NATAMYCIN]
Not Active: IC50 [1] | Ki [1] | IC50 [2] | IC50 [3] | IC50 ([4]; mdck) | IC50 ([5]; cho-k1)

CN(C)C(=O)Oc1cccc([N+](C)(C)C)c1.[Br-] [NEOSTIGMINE BROMIDE]
Not Active: IC50 [1] | Ki [1] | IC50 [2] | IC50 [3] | IC50 ([4]; mdck) | IC50 ([5]; cho-k1)

NC(=O)c1cccnc1 [NIACINAMIDE]
Not Active: IC50 [1] | Ki [1] | IC50 [2] | IC50 [3] | IC50 ([4]; mdck) | IC50 ([5]; cho-k1)

CS(=O)(=O)Nc1ccc([N+](=O)[O-])cc1Oc1ccccc1 [NIMESULIDE]
Not Active: IC50 [1] | Ki [1] | IC50 [2] | IC50 [3] | IC50 ([4]; mdck) | IC50 ([5]; cho-k1)

CN1C(=O)CN=C(c2ccccc2)c2cc([N+](=O)[O-])ccc21 [NIMETAZEPAM]
Not Active: IC50 [1] | Ki [1] | IC50 [2] | IC50 [3] | IC50 ([4]; mdck) | IC50 ([5]; cho-k1)

COc1ccc2c(c1OC)C(=O)O[C@@H]2[C@H]1c2c(cc3c(c2OC)OCO3)CCN1C [NOSCAPINE]
Not Active: IC50 [1] | Ki [1] | IC50 [2] | IC50 [3] | IC50 ([4]; mdck) | IC50 ([5]; cho-k1)

NC(=O)N1c2ccccc2CC(=O)c2ccccc21 [OXCARBAZEPINE]
Not Active: IC50 [1] | Ki [1] | IC50 [2] | IC50 [3] | IC50 ([4]; mdck) | IC50 ([5]; cho-k1)
